Test results: patent US11878965B2, “Inhibitors of peptidylarginine deiminases” (Gilead Sciences, Inc., priority 2020, dated 2024)

Target: human PAD4 (Homo sapiens (Human), UniProt Q9UM07)
Assay: In Vitro PAD4 BAEE Biochemical Assay
Details: geometric mean of multiple experiments
Protocol: The PCR product was ligated into linearized pET-SUMO vector (Invitrogen, Carlsbad, CA), which is part of the Champion™ pET SUMO Protein Expression System. After sequence verification for the correct orientation, the pET-SUMO-hPAD4 expression plasmid was transformed into BL21(DE3) cells.
E. Coli BL21(DE3) cells were inoculated in LB medium with kanamycin at 37° C. until A600 nm reached about 0.5. Protein expression was induced by addition of 0.5 mM IPTG (final) and continued overnight at 16° C. at 220 rpm.
Cells were harvested by centrifugation at 5000 rpm for 10 minutes at 4° C. The pellet was resuspended in 300 ml lysis buffer (20 mM Tris-HCl, pH 8.0, 1 mM EDTA, 500 mM NaCl, 1 mM (tris(2-carboxyethyl)phosphine) (TCEP), 10% glycerol, and 1% Triton X100 and EDTA free protease inhibitor) and lysed by 3× passage through a microfluidizer (Microfluidics, Newton, MA) at 18,000 psi. The cell lysate was clarified by centrifugation at 30,000 rpm for 60 minutes at 4° C. The supernatant was applied to a 5 ml Ni-HP (GE HealthCare Cat #17524701) column preequilibrated in Ni-A buffer (20 mM Tris-HCl, pH 8.0, 20 mM Imidazole, 1 mM TCEP, 10% glycerol, and 400 mM NaCl). Bound protein was eluted with a 0-100% linear gradient of 100 mL Ni-B buffer (Ni A buffer+0.5 M Imidazole).
The His-Sumo tag was cleaved using sumo protease (Thermo Fisher Cat #: 12588018) while dialyzing in buffer (20 mM Tris-HCl, pH 8.0, 1 mM EDTA, 500 mM NaCl, 1 mM TCEP, 10% glycerol). The protein was then reloaded onto a Ni-HP column for a reverse purification step and recovered in flow through fraction. The protein with His-Sumo tag removed was then polished using a 16/60 Superdex-200 gel filtration column with gel filtration buffer (20 mM Tris pH 8.0, NaCl 400 mM and 1 mM TCEP). The fractions containing the protein were pulled and frozen at −80° C.
In Vitro PAD4 BAEE Biochemical Assay
The enzymatic activity of human PAD4 was monitored in a biochemical assay in the presence or absence of compounds using the small peptidyl arginine mimic BAEE (Nα-Benzoyl-L-arginine ethyl ester hydrochloride) as substrate. PAD4 activity led to deimination of BAEE and release of ammonia. Levels of ammonia were monitored by using an amine coupling reaction and were indicative of PAD4 enzymatic activity.
One hundred nanoliters of test compounds dissolved in DMSO at various concentrations were dispensed into a 384-well black OptiPlate using a Labcyte Echo instrument. Ten microliters of a solution of recombinant PAD4 and calcium chloride diluted in PAD4 assay buffer (50 mM MOPS [3-(N-morpholino) propanesulfonic acid], pH 7.6; 50 mM sodium chloride; 0.05% Tween-20; 2 mM dithiothreitol) was added to the compound-containing plate and was incubated for 30 minutes at 25° C. Ten microliters of a solution of BAEE (Sigma-Aldrich #B4500) diluted in PAD4 assay buffer was then added to start the reaction. Final concentrations were 5 nM PAD4, 2 mM calcium chloride, and 3 mM BAEE. The reaction mixture was incubated at 25° C. for 2 hours and was stopped with the addition of 10 microliters of a solution of 75 mM EDTA (Ethylenediaminetetraacetic acid) in PAD4 assay buffer. Thirty microliters of detection solution (5 mM o-phthalaldehyde, 50 mM MOPS [3-(N-morpholino) propanesulfonic acid], pH 7.6; 50 mM sodium chloride; 0.05% Tween-20; 5 mM dithiothreitol) was then added and the reaction was incubated for 1 hour at 25° C. The level of fluorescent thiol-substituted isoindole resulting from the reaction of ammonia, o-phthalaldehyde, and dithiothreitol was measured on an Envision plate reader (PerkinElmer) with 405 nm excitation and 535 nm emission.

[1] = human PAD4, BAEE substrate, 5 nM PAD4, 2 mM calcium chloride, 3 mM BAEE
[2] = recombinant PAD4 5 nM, 2 mM calcium chloride, 3 mM BAEE substrate

Sequence of human PAD4 (Q9UM07 2-663): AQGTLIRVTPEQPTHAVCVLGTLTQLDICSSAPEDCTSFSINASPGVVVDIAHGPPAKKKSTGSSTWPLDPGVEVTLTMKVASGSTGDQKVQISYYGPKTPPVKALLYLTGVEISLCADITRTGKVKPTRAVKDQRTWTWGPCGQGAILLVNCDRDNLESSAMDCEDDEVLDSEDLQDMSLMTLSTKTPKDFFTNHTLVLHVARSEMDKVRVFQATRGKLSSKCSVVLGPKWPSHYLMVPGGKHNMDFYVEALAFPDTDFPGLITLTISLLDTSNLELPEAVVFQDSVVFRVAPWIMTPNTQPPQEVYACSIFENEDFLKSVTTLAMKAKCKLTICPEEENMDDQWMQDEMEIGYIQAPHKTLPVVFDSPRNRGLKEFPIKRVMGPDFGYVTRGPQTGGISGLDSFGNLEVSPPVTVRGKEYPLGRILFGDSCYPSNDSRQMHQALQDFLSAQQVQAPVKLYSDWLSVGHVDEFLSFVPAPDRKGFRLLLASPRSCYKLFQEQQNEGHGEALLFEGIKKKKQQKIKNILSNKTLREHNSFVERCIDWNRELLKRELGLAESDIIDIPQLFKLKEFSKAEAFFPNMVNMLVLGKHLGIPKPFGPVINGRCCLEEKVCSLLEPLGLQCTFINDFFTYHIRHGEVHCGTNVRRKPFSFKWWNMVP

COc1cc(C(=O)N2C[C@H](N)CCN2C)cc2nc(-c3cc4ccc([C@@H](C)NC(=O)C56CC(C(F)(F)F)(C5)C6)nc4n3CC3CC3)n(C)c12 [Example 188, N-((R)-1-(2-(5-((R)-5-amino-2-methylhexahydropyridazine-1-carbonyl)-7-methoxy-1-methyl-1H-benzo[d]imidazol-2-yl)-1-(cyclopropylmethyl)-1H-pyrrolo[2,3-b]pyridin-6-yl)ethyl)-3-(trifluoromethyl)bicyclo [1.1.1]pentane-1-carboxamide]
IC50 [1]: 149 nM

COc1cc(C(=O)N2C[C@H](N)[C@@H]3CC[C@H]2C3)cc2nc(-c3cc4ccc([C@@H](C)NC(=O)c5ccc(Cl)nc5)nc4n3CC3CC3)n(C)c12 [Example 225, N-((R)-1-(2-(5-((1S,4R,5R)-4-amino-2-azabicyclo[3.2.1]octane-2-carbonyl)-7-methoxy-1-methyl-1H-benzo[d]imidazol-2-yl)-1-(cyclopropylmethyl)-1H-pyrrolo[2,3-b]pyridin-6-yl)ethyl)-6-chloronicotinamide]
IC50 [1]: 48.1 nM

COc1cc(C(=O)N2CC3(CCCN3)C2)cc2nc(-c3cc4ccc(N(C(F)F)S(C)(=O)=O)nc4n3CC3CC3)n(C)c12 [Example 77, N-(1-(cyclopropylmethyl)-2-(7-methoxy-1-methyl-5-(2,5-diazaspiro[3.4]octane-2-carbonyl)-1H-benzo[d]imidazol-2-yl)-1H-pyrrolo[2,3-b]pyridin-6-yl)-N-(difluoromethyl) methanesulfonamide]
IC50 [1]: 50000 nM

CCN(c1ccc2cc(-c3nc4cc(C(=O)N5C[C@H](N)CC[C@@H]5C)cc(OC)c4n3C)n(CC3CC3)c2n1)S(C)(=O)=O [Example 30, N-(2-(5-((2S,5R)-5-amino-2-methylpiperidine-1-carbonyl)-7-methoxy-1-methyl-1H-benzo[d]imidazol-2-yl)-1-(cyclopropylmethyl)-1H-pyrrolo [2,3-b]pyridin-6-yl)-N-ethylmethanesulfonamide]
IC50 [1]: 88.2 nM

COc1cc(C(=O)N2[C@H]3CC[C@@H]2[C@H](N)C3)cc2nc(-c3cc4ccc([C@@H](C)NC(=O)c5ccccc5C(F)F)nc4n3CC3CC3)n(C)c12 [Example 203, N-((R)-1-(2-(5-((1R,2R,4S)-2-amino-7-azabicyclo[2.2.1]heptane-7-carbonyl)-7-methoxy-1-methyl-1H-benzo[d]imidazol-2-yl)-1-(cyclopropylmethyl)-1H-pyrrolo[2,3-b]pyridin-6-yl)ethyl)-2-(difluoromethyl)benzamide]
IC50 [1]: 155 nM

COc1cc(C(=O)N2C[C@H](N)[C@@H]3CC[C@H]2C3)cc2nc(-c3cc4ccc([C@@H](C)NC(=O)C56CC(C5)C6)nc4n3CC3CC3)n(C)c12 [Example 290, N-((R)-1-(2-(5-((1S,4R,5R)-4-amino-2-azabicyclo[3.2.1]octane-2-carbonyl)-7-methoxy-1-methyl-1H-benzo[d]imidazol-2-yl)-1-(cyclopropylmethyl)-1H-pyrrolo[2,3-b]pyridin-6-yl)ethyl)bicyclo[1.1.1] pentane-1-carboxamide]
IC50 [2]: 79.2 nM

COc1cc(C(=O)N2C[C@H](N)CC[C@@H]2C)cc2nc(-c3cc4ccc(-c5cccnc5N5CCCC5)nc4n3CC3CC3)n(C)c12 [Example 263, ((2S,5R)-5-amino-2-methylpiperidin-1-yl)(2-(1-(cyclopropylmethyl)-6-(2-(pyrrolidin-1-yl)pyridin-3-yl)-1H-pyrrolo[2,3-b]pyridin-2-yl)-7-methoxy-1-methyl-1-benzo[d]imidazol-5-yl)methanone]
IC50 [1]: 687 nM

COc1cc(C(=O)N2CCC[C@@H](N)C2)cc2nc(-c3cc4ccc(N(C(F)F)S(=O)(=O)C5CC5)nc4n3CC3CC3)n(C)c12 [Example 27, (R)-N-(2-(5-(3-aminopiperidine-1-carbonyl)-7-methoxy-1-methyl-1H-benzo[d]imidazol-2-yl)-1-(cyclopropylmethyl)-1H-pyrrolo [2,3-b]pyridin-6-yl)-N-(difluoromethyl) cyclopropanesulfonamide]
IC50 [1]: 92.7 nM

COc1cc(C(=O)N[C@H]2CNC[C@@H]2NC(C)=O)cc2nc(-c3cc4ccc(N(C(F)F)S(C)(=O)=O)nc4n3CC3CC3)n(C)c12 [Example 70, N-((3S,4S)-4-acetamidopyrrolidin-3-yl)-2-(1-(cyclopropylmethyl)-6-((N-(difluoromethyl)methyl)sulfonamido)-1H-pyrrolo[2,3-b]pyridin-2-yl)-7-methoxy-1-methyl-1H-benzo[d]imidazole-5-carboxamide]
IC50 [1]: 39400 nM

COc1cc(C(=O)N2C[C@H](N)[C@@H]3CC[C@H]2C3)cc2nc(-c3cc4ccc([C@@H](C)NC(=O)c5ccccc5)nc4n3CC3CC3)n(C)c12 [Example 222, N-((R)-1-(2-(5-((1S,4R,5R)-4-amino-2-azabicyclo[3.2.1]octane-2-carbonyl)-7-methoxy-1-methyl-1H-benzo[d]imidazol-2-yl)-1-(cyclopropylmethyl)-1H-pyrrolo[2,3-b]pyridin-6-yl)ethyl)benzamide]
IC50 [1]: 53.5 nM

COc1cc(C(=O)N2C[C@H](N)[C@@H]3CC[C@H]2C3)cc2nc(-c3cc4ccc([C@@H](C)NC(=O)C56CC(F)(C5)C6)nc4n3CC3CC3)n(C3CC3)c12 [Example 317, N-((R)-1-(2-(5-((1S,4R,5R)-4-amino-2-azabicyclo[3.2.1]octane-2-carbonyl)-1-cyclopropyl-7-methoxy-1H-benzo[d]imidazol-2-yl)-1-(cyclopropylmethyl)-1H-pyrrolo[2,3-b]pyridin-6-yl)ethyl)-3-fluorobicyclo[1.1.1]pentane-1-carboxamide]
IC50 [2]: 124 nM

COc1cc(C(=O)N2C[C@H](N)[C@@H]3CC[C@H]2C3)cc2nc(-c3cc4ccc([C@@H](C)NC(=O)[C@@H]5C[C@H]5F)nc4n3CC3CC3)n(C)c12 [Example 288, (1S,2R)-N-((R)-1-(2-(5-((1S,4R,5R)-4-amino-2-azabicyclo[3.2.1]octane-2-carbonyl)-7-methoxy-1-methyl-1H-benzo[d]imidazol-2-yl)-1-(cyclopropylmethyl)-1H-pyrrolo[2,3-b]pyridin-6-yl)ethyl)-2-fluorocyclopropane-1-carboxamide]
IC50 [2]: 70.8 nM

COc1cc(C(=O)N2CCC[C@@H](N)C2)cc2nc(-c3cc4ccc(N(CC(F)F)S(C)(=O)=O)nc4n3CC3CC3)n(C)c12 [Example 19, (R)-N-(2-(5-(3-aminopiperidine-1-carbonyl)-7-methoxy-1-methyl-1H-benzo[d]imidazol-2-yl)-1-(cyclopropylmethyl)-1H-pyrrolo [2,3-b]pyridin-6-yl)-N-(2,2-difluoroethyl) methanesulfonamide]
IC50 [1]: 181 nM

COc1cc(C(=O)N2C[C@H](N)CC[C@@H]2C)cc2nc(-c3cc4ccc(-c5sc(C(C)C)nc5C)nc4n3CC3CC3)n(C)c12 [Example 274, ((2S,5R)-5-amino-2-methylpiperidin-1-yl)(2-(1-(cyclopropylmethyl)-6-(2-isopropyl-4-methylthiazol-5-yl)-1H-pyrrolo[2,3-b]pyridin-2-yl)-7-methoxy-1-methyl-1H-benzo[d]imidazol-5-yl)methanone]
IC50 [1]: 4910 nM

COc1cc(C(=O)N2CCC[C@@H](N)C2)cc2nc(-c3cc4ccc(N(C5CC5)S(C)(=O)=O)nc4n3CC3CC3)n(C)c12 [Example 17, (R)-N-(2-(5-(3-aminopiperidine-1-carbonyl)-7-methoxy-1-methyl-1H-benzo[d]imidazol-2-yl)-1-(cyclopropylmethyl)-1H-pyrrolo [2,3-b]pyridin-6-yl)-N-cyclopropylmethanesulfonamide]
IC50 [1]: 88.5 nM
